Reference: patent US20250268884A1, “Deuterated Domperidone for Treating Gastroparesis” (CinDome Pharma, Inc., priority 2022, published 2025)
Where two headings read alike, the source gives them in different places.

Columns and labels:
clinical = conditions: human, plasma, oral
Method: (§1) The following PK parameters were calculated for deuterated domperidone from plasma concentrations (Day 1) using a noncompartmental method, if the data permitted: • Cmax determined directly from the concentration-time profile.
(§2) [formula] • λz calculated from a semi-logarithmic plot of the plasma concentration versus time curve. The parameter was calculated by linear least-squares regression analysis using points in the terminal logarithmic-linear phase; • T½ calculated as natural logarithm (2)/λz; • CL/F calculated as Dose/AUC0-∞; • Vz/F calculated as Dose/(λz×AUC0-∞); • Rcmax calculated as Cmax on Day 14/Cmax on Day 1; and • RAUC calculated as AUCtau on Day 14/AUCtau on Day 1.

[1] = system: cardiac conduction (QRS interval) in healthy subjects; conditions: human, in vivo
Method: Categorical T-wave morphology analysis and measurement of PR and QRS intervals were fully performed manually using a semi-automated process in 3 of the 10 ECG replicates at each time point. Final quality control and diagnostic interpretations were performed by the study cardiologist.
An unstructured covariance structure was used to specify the repeated measures at post-dose time points for subject within treatment period. The model also included a subject-specific random effect.

[2] = for AUC% extrap / CL/F / RAUC / RCmax / λz: Day 14 (steady state), mean
Method: as §1, §2

[3] = system: heart rate in healthy subjects; assay: Thorough QT study, placebo-corrected change-from-baseline HR (ΔΔHR); type: in vivo, human
[4] = system: adults with idiopathic or diabetic gastroparesis; conditions: in vivo
Method: Safety was evaluated through assessments of Aes, vital signs, physical examinations, clinical laboratory evaluations (including prolactin), and ECG findings. Additionally, a single, optional PGx blood sample may have been collected at any time during the subject's participation in the study.
Safety variables included Aes, clinical laboratory results (including prolactin), vital signs, ECGs, and physical examination findings.

Compound: [2H]c1c([2H])c([2H])c2c([nH]c(=O)n2CCCN2CCC(n3c(=O)[nH]c4cc(Cl)ccc43)CC2)c1[2H] [Deudomperidone, 1-{3-[4-(5-chloro-2-oxo-2,3-dihydro-1H-1,3-benzodiazol-1-yl)piperidin-1yl]propyl}-2,3-dihydro(4,5,6,7-D4)-1H-1,3-benzodiazol-2-one]
- Tmax (clinical; 5 mg, Tmax, Day 1 (single dose), 5 mg BID, median, plasma deuterated domperidone): 2 h
- Tmax (clinical; 5 mg, Tmax, Day 14 (steady state), 5 mg BID, median, plasma deuterated domperidone): 2 h
- Tmax (clinical; 10 mg, Tmax, Day 1 (single dose), 10 mg BID, median, plasma deuterated domperidone): 2 h
- Tmax (clinical; 10 mg, Tmax, Day 14 (steady state), 10 mg BID, median, plasma deuterated domperidone): 2 h
- Tmax (clinical; 20 mg, Tmax, Day 1 (single dose), 20 mg QD, median, plasma deuterated domperidone): 2.5 h
- Tmax (clinical; 20 mg, Tmax, Day 14 (steady state), 20 mg QD, median, plasma deuterated domperidone): 2 h
- Tmax (clinical; median Tmax, across dose groups (5 mg BID, 10 mg BID, 20 mg QD), patients with gastroparesis): 2 to 2.5 h
- LS mean placebo-corrected ΔQRS (ΔΔQRS) [1]: ±1.1 ms
- AUC% extrap ([2]; 5 mg BID): 11.72%
- CL/F ([2]; 5 mg BID): 48.394 L/h
- RAUC ([2]; 5 mg BID): 1.653
- RCmax ([2]; 5 mg BID): 1.838
- λz ([2]; 5 mg BID): 0.0413 h⁻¹
- AUC% extrap ([2]; 10 mg BID): 9.31%
- CL/F ([2]; 10 mg BID): 69.640 L/h
- RAUC ([2]; 10 mg BID): 2.430
- RCmax ([2]; 10 mg BID): 2.179
- λz ([2]; 10 mg BID): 0.0454 h⁻¹
- AUC% extrap ([2]; 20 mg QD): 8.48%
- CL/F ([2]; 20 mg QD): 55.317 L/h
- RAUC ([2]; 20 mg QD): 2.011
- RCmax ([2]; 20 mg QD): 2.620
- λz ([2]; 20 mg QD): 0.0454 h⁻¹
- exposure (Cmax and AUC) in patients with gastroparesis compared to that expected from healthy subjects ([2]; given dose level): approximately 2 fold
- bradycardic outliers ([3]; 30 mg treatment group, at 5 time points): 1
- ΔΔHR LS Mean ([3]; 0.5 H Post Dose, 30 mg CIN-102 (Treatment A)): −0.5 bpm
- ΔΔHR LS Mean ([3]; 0.5 H Post Dose, 100 mg CIN-102 (Treatment B)): −0.5 bpm
- ΔΔHR LS Mean ([3]; 1 H Post Dose, 30 mg CIN-102 (Treatment A)): −1.4 bpm
- ΔΔHR LS Mean ([3]; 1 H Post Dose, 100 mg CIN-102 (Treatment B)): −1.1 bpm
- ΔΔHR LS Mean ([3]; 1.5 H Post Dose, 30 mg CIN-102 (Treatment A)): −1.0 bpm
- ΔΔHR LS Mean ([3]; 1.5 H Post Dose, 100 mg CIN-102 (Treatment B)): −0.7 bpm
- ΔΔHR LS Mean ([3]; 2 H Post Dose, 30 mg CIN-102 (Treatment A)): 0.4 bpm
- ΔΔHR LS Mean ([3]; 2 H Post Dose, 100 mg CIN-102 (Treatment B)): 0.2 bpm
- ΔΔHR LS Mean ([3]; 2.5 H Post Dose, 30 mg CIN-102 (Treatment A)): −0.7 bpm
- ΔΔHR LS Mean ([3]; 2.5 H Post Dose, 100 mg CIN-102 (Treatment B)): −0.8 bpm
- ΔΔHR LS Mean ([3]; 3 H Post Dose, 30 mg CIN-102 (Treatment A)): −1.4 bpm
- ΔΔHR LS Mean ([3]; 3 H Post Dose, 100 mg CIN-102 (Treatment B)): −1.0 bpm
- ΔΔHR LS Mean ([3]; 4 H Post Dose, 30 mg CIN-102 (Treatment A)): 0.0 bpm
- ΔΔHR LS Mean ([3]; 4 H Post Dose, 100 mg CIN-102 (Treatment B)): 0.1 bpm
- ΔΔHR LS Mean ([3]; 5 H Post Dose, 30 mg CIN-102 (Treatment A)): −0.3 bpm
- ΔΔHR LS Mean ([3]; 5 H Post Dose, 100 mg CIN-102 (Treatment B)): −0.8 bpm
- ΔΔHR LS Mean ([3]; 6 H Post Dose, 30 mg CIN-102 (Treatment A)): −0.2 bpm
- ΔΔHR LS Mean ([3]; 6 H Post Dose, 100 mg CIN-102 (Treatment B)): −0.5 bpm
- ΔΔHR LS Mean ([3]; 8 H Post Dose, 30 mg CIN-102 (Treatment A)): 0.7 bpm
- ΔΔHR LS Mean ([3]; 8 H Post Dose, 100 mg CIN-102 (Treatment B)): −0.9 bpm
- ΔΔHR LS Mean ([3]; 12 H Post Dose, 30 mg CIN-102 (Treatment A)): −0.5 bpm
- ΔΔHR LS Mean ([3]; 12 H Post Dose, 100 mg CIN-102 (Treatment B)): −0.8 bpm
- ΔΔHR LS Mean ([3]; 24 H Post Dose, 30 mg CIN-102 (Treatment A)): 1.1 bpm
- ΔΔHR LS Mean ([3]; 24 H Post Dose, 100 mg CIN-102 (Treatment B)): 0.1 bpm
- ΔΔHR LS Mean ([3]; 36 H Post Dose, 30 mg CIN-102 (Treatment A)): 0.5 bpm
- ΔΔHR LS Mean ([3]; 36 H Post Dose, 100 mg CIN-102 (Treatment B)): −0.4 bpm
- ΔΔHR LS Mean ([3]; 48 H Post Dose, 30 mg CIN-102 (Treatment A)): 0.9 bpm
- ΔΔHR LS Mean ([3]; 48 H Post Dose, 100 mg CIN-102 (Treatment B)): 0.5 bpm
- tachycardic outliers ([3]; across treatment periods): no tachycardic outliers
- mean ΔΔHR, by-time point analysis ([3]; both dose levels, all post-dose time points): below 10 bpm
- tolerability of multiple doses [4]: generally well tolerated
